Values quoted from earlier work as cited in US8523569B2, “Controlled release local anesthetic for post dental surgery and method of use” (priority 2007, dated 2013).

Conditions: immediate release vasoconstrictor, known to the art

## CNC[C@H](O)c1ccc(O)c(O)c1 [epinephrine]
  prolongation of local anesthetic activity, at best: ≤ 1 h
